Test results published in patent US20260207621A1 (Vividion Therapeutics, Inc., priority 2022, published 2026).

Tests used:
Nrf2 = Nrf2 antagonism assay: ARE luciferase reporter in KYSE-70 cells; type: cell-based; conditions: Homo sapiens, KYSE-70, KYSE-70 cells, positive Imax corresponds to Nrf2 antagonism, read-out: KYSE70 Cellular ARE Luciferase Imax (%)
Method in brief: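 Dose-response curves give IC50 and Imax, with positive Imax read as Nrf2 antagonism, i.e. reduced luciferase signal. Reporter cells are Nrf2-high KYSE-70 (Nrf2 W24C mutant) bearing ARE-controlled luciferase. Antagonists are proposed to act at KEAP1 C151, speeding Nrf2 degradation.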

KEAP1 C151 = biological target: T1, KEAP1 C151 (Homo sapiens, UniProt Q14145); experiment: Nrf2 TMT measurement: in vitro TE50 for KEAP1 C151 (IA-DTB competition, targeted TMT mass spectrometry) in MDA-MB-468 cell lysate; type: binding; conditions: in vitro target engagement of KEAP1 C151, targeted TMT, read-out: KEAP1_C151 TE50
T1 construct: treating 500 μg of cell lysate generated from MDA-MB-468 breast cancer cells with DMSO or compound; endogenous in cells; host or cells: MDA-MB-468 breast cancer cell lysate
Method in brief: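 Occupancy of KEAP1 C151 measured as loss of IA-DTB labeling (200 μM, 1 h, room temperature) after 1 h compound pre-treatment of MDA-MB-468 cell lysate.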

T1 sequence (Q14145 whole entry): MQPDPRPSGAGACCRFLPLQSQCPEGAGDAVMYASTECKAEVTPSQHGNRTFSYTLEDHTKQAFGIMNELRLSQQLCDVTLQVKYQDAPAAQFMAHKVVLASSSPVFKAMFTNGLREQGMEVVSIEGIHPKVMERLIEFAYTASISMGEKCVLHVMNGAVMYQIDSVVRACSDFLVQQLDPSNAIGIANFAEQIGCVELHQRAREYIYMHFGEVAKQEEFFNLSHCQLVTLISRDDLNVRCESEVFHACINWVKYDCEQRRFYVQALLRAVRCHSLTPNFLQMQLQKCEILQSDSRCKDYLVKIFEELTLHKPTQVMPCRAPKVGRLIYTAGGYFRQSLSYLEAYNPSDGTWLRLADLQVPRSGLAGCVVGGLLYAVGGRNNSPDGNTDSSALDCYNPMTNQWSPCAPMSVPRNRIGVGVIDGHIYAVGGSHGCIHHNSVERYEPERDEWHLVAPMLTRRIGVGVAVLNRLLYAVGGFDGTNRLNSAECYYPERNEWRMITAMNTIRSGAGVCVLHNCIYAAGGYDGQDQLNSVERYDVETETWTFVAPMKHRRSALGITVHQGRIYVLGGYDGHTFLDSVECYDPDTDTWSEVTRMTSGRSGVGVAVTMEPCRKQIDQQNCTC

SMILES | Emax (Nrf2) [%] | IC50 (KEAP1 C151) [µM]
C=CC(=O)N1CCOC[C@H]1c1cc(Cl)cc(-c2nccc(C)n2)c1 (single isomer, unassigned) [Compound 87] | 81 | 0.01
C=CC(=O)N1CCOC[C@H]1c1cc(Cl)cc(-c2nccc(OC)n2)c1 (single isomer, unassigned) [Compound 88] | 85 | 0.014
C=CC(=O)N1CCOCC1c1cc(Cl)cc(-c2ccnc(C(N)=O)n2)c1 (single isomer, unassigned) [Compound 89, 4-(3-(4-acryloylmorpholin-3-yl)-5-chlorophenyl)pyrimidine-2-carboxamide] | 73 | 0.036
C=CC(=O)N1CCOC[C@H]1c1cc(Cl)cc(-c2ccnc(C)c2)c1 (single isomer, unassigned) [Compound 90] | 81 | 0.12
C=CC(=O)N1CCOC[C@H]1c1cc(Cl)cc(-c2ccnc(OC)c2)c1 (single isomer, unassigned) [Compound 91] | 82 | 0.011
C=CC(=O)N1CCOC[C@H]1c1cc(Cl)cc(-c2ncc(N)cn2)c1 (single isomer, unassigned) [Compound 92] | 94 | 0.023
C=CC(=O)N1CCOC[C@H]1c1cc(Cl)cc(-c2nc(C)cc(C)n2)c1 (single isomer, unassigned) [Compound 93] | 91 | 0.04
C=CC(=O)N1CCOCC1c1cc(Cl)cc(-c2cc(=O)[nH]cn2)c1 (single isomer, unassigned) [Compound 94, 6-(3-(4-acryloylmorpholin-3-yl)-5-chlorophenyl)pyrimidin-4(3H)-one] | 87 | 0.016
C=CC(=O)N1CCOC[C@H]1c1cc(Cl)cc(-c2nc(C)cc(N)n2)c1 (single isomer, unassigned) [Compound 95] | 94 | 0.025
C=CC(=O)N1CCOC[C@H]1c1cc(Cl)cc(-c2nccc(N)n2)c1 (single isomer, unassigned) [Compound 96] | 94 | 0.02
C=CC(=O)N1CCOC[C@H]1c1cc(Cl)cc(-c2ccnc3[nH]ccc23)c1 (single isomer, unassigned) [Compound 97] | 86 | 0.023
C=CC(=O)N1CCOC[C@H]1c1cc(Cl)cc(-c2cccc(C)n2)c1 (single isomer, unassigned) [Compound 98] | 76 | 0.026
C=CC(=O)N1CCOC[C@H]1c1cc(Cl)cc(-c2cccc(OC)n2)c1 (single isomer, unassigned) [Compound 100] | 78 | 0.14
C=CC(=O)N1CCOC[C@H]1c1cc(Cl)cc(-c2ncc(C)cn2)c1 (single isomer, unassigned) [Compound 101] | 87 | 0.024
C=CC(=O)N1[C@H](C)COC[C@H]1c1cc(Cl)cc(-c2ncnc(N)n2)c1 (single isomer, unassigned) [Compound 102] | 92 | 0.0432
C=CC(=O)N1CCOC[C@H]1c1cc(Cl)cc(-c2ncc(OC)cn2)c1 (single isomer, unassigned) [Compound 103] | 85 | 0.017
C=CC(=O)N1CCOC[C@H]1c1cc(Cl)cc(-c2cc(C)ccn2)c1 (single isomer, unassigned) [Compound 104] | 91 | 0.045
C=CC(=O)N1CCOC[C@H]1c1cc(Cl)cc(-c2cc(OC)ccn2)c1 (single isomer, unassigned) [Compound 105] | 92 | 0.036
C=CC(=O)N1CCOC[C@H]1c1cc(Cl)cc(-c2ccnc(C#N)n2)c1 (single isomer, unassigned) [Compound 106] | 67 | 0.037
C=CC(=O)N1CCOCC1c1cc(Cl)cc(-c2cc(C(N)=O)ncn2)c1 (single isomer, unassigned) [Compound 107, 6-(3-(4-acryloylmorpholin-3-yl)-5-chlorophenyl)pyrimidine-4-carboxamide] | 92 | 0.018
C=CC(=O)N1CC(C)(C)OCC1c1cc(Cl)nc(-c2ccnc(C)n2)c1 (single isomer, unassigned) [Compound 120, 1-(5-(2-chloro-6-(2-methylpyrimidin-4-yl)pyridin-4-yl)-2,2-dimethylmorpholino)prop-2-en-1-one] | 77 | 0.11
C=CC(=O)N1CCOCC1c1cc(Cl)nc(-c2ccnc(C)n2)c1 (single isomer, unassigned) [Compound 121, 1-(3-(2-chloro-6-(2-methylpyrimidin-4-yl)pyridin-4-yl)morpholino)prop-2-en-1-one] | 82 | 0.026

SMILES | Emax (Nrf2) [%] | IC50 (KEAP1 C151) [µM]
C=CC(=O)N1CC2(CC2)OCC1c1cc(Cl)cc(-c2ccnc(C(N)=O)c2)c1 (single isomer, unassigned) [Compound 122, 4-(3-(7-acryloyl-4-oxa-7-azaspiro[2.5]octan-6-yl)-5-chlorophenyl)picolinamide] | 88 | 0.011
C=CC(=O)N1CCN(S(C)(=O)=O)C[C@H]1c1cc(Cl)cc(-c2ncnc(N)n2)c1 (single isomer, unassigned) [Compound 123] | 73 | 0.013
C=CC(=O)N1CCN(S(C)(=O)=O)C[C@H]1c1cc(Cl)cc(-c2ccnc(N)n2)c1 (single isomer, unassigned) [Compound 124] | 72 | 0.018
C=CC(=O)N1CCOCC1c1cc(Cl)nc(-c2cc(C(N)=O)ncn2)c1 (single isomer, unassigned) [Compound 125, 6-(4-(4-acryloylmorpholin-3-yl)-6-chloropyridin-2-yl)pyrimidine-4-carboxamide] | 91 | < 0.0064
C=CC(=O)N1CCOC[C@H]1c1cc(Cl)cc(-c2ccncc2)c1 (single isomer, unassigned) [Compound 126] | 72 | 0.05
C=CC(=O)N1CCOC[C@H]1c1cc(Cl)cc(-c2ccc(N)nn2)c1 (single isomer, unassigned) [Compound 128] | 70 | 0.12
C=CC(=O)N1CCOCC1c1cc(Cl)nc(-c2cc(C#N)ncn2)c1 (single isomer, unassigned) [Compound 129, 6-(4-(4-acryloylmorpholin-3-yl)-6-chloropyridin-2-yl)pyrimidine-4-carbonitrile] | 84 | 0.079
C=CC(=O)N1[C@H](C)COC[C@H]1c1cc(Cl)cc(-c2ncc(N)cn2)c1 (single isomer, unassigned) [Compound 130] | 89 | 0.094
C=CC(=O)N1[C@H](C)COC[C@H]1c1cc(Cl)cc(-c2cc(N)ncn2)c1 (single isomer, unassigned) [Compound 131] | 91 | 0.3
C=CC(=O)N1CCOC[C@H]1c1cc(Cl)cc(-c2cc(N)cnn2)c1 (single isomer, unassigned) [Compound 132] | 78 | < 0.0064
C=CC(=O)N1CC(C)(C)OC[C@H]1c1cc(Cl)cc(-c2ccnc(C(N)=O)c2)c1 (single isomer, unassigned) [Compound 133] | 85 | 0.072
C=CC(=O)N1[C@H](C)COC[C@H]1c1cc(Cl)cc(-c2ccnc(C(N)=O)c2)c1 (single isomer, unassigned) [Compound 134] | 85 | 0.063
C=CC(=O)N1CCOC[C@H]1c1cc(Cl)cc(-c2ccnc(N)c2)c1 (single isomer, unassigned) [Compound 136] | 81 | 0.052
C=CC(=O)N1[C@H](C)COC[C@H]1c1cc(Cl)cc(-c2ncnc3[nH]cnc23)c1 (single isomer, unassigned) [Compound 137] | 92 | 0.025
C=CC(=O)N1[C@H](C)COC[C@H]1c1cc(Cl)nc(-c2ccn3ccnc3c2)c1 (single isomer, unassigned) [Compound 138] | 75 | 0.041
C=CC(=O)N1[C@H](C)COC[C@H]1c1cc(Cl)nc(-c2ccc(F)c(C(N)=O)c2)c1 (single isomer, unassigned) [Compound 139] | 90 | 0.074
C=CC(=O)N1CCOCC12COc1c(-c3ccc(F)c(C(N)=O)c3)cc(Cl)cc12 (single isomer, unassigned) [Compound 143, 5-(4′-acryloyl-5-chloro-2H-spiro[benzofuran-3,3′-morpholin]-7-yl)-2-fluorobenzamide] | 56 | 0.77
C=CC(=O)N1[C@H](C)COC[C@H]1c1cc(Cl)nc(-c2ccnc(N)n2)c1 (single isomer, unassigned) [Compound 144] | 86 | 0.083
C=CC(=O)N1[C@H](C)COC[C@H]1c1cc(Cl)nc(-c2ccnc(C(N)=O)c2)c1 (single isomer, unassigned) [Compound 145] | 90 | 0.011
C=CC(=O)N1CCOC[C@H]1c1cc(Cl)cc(-c2ncncn2)c1 (single isomer, unassigned) [Compound 147] | 74 | 0.18
C=CC(=O)N1CC(C)(C)OC[C@H]1c1cc(Cl)cc(-c2ccnc(N)n2)c1 (single isomer, unassigned) [Compound 148] | 93 | 0.051
C=CC(=O)N1CC(C)(C)OC[C@H]1c1cc(Cl)cc(-c2cc(N)ncn2)c1 (single isomer, unassigned) [Compound 149] | 95 | 0.015
